Laboratory results taken from patent US20260259195A1, “REAL-TIME TRACKING OF APOPTOSIS” (FUNDACIÓ INSTITUT DE BIOENGINYERIA DE CATALUNYA (IBEC), priority 2022, published 2026).
“Also recorded” adds a separate entry of the source. Like-named read-outs stand apart in the source and are kept apart here.

How the values were obtained:
GIST-T1/670 cell line [1] = test: RTA with fluorescence microscopy (TMRE); type: cell-based; conditions: 16 h drug pre-treatment; titration of combination A, 3 hours
GIST-T1 cell line [2] = conditions: 16 h drug pre-treatment; for Percentage of TMRE positive cells, dose-response curve versus control: titration of combination A, 3 hours
GIST-T1 cell line [3] = conditions: 16 h drug pre-treatment (imatinib 1000 nM, gefitinib 1000 nM); BIM peptide titration with digitonin
GIST-T1/670 cell line [4] = test: Real-time tracking of apoptosis (RTA) with flow cytometry; type: cell-based; conditions: 16 h drug pre-treatment; titration of combination A, 3 hours
GIST-T1/670 cell line [5] = conditions: 16 h drug pre-treatment (imatinib 1000 nM, gefitinib 1000 nM); BIM peptide titration with digitonin
GIST-T1 cells = conditions: 16 h drug pre-treatment; combination A gradient generated by the device
GIST-T1 cell line [6] = test: Real-time tracking of apoptosis (RTA) with flow cytometry; type: cell-based; conditions: 16 h drug pre-treatment; titration of combination A, 3 hours

What does the source list for `Cc1ccc(NC(=O)c2ccc(CN3CCN(C)CC3)cc2)cc1Nc1nccc(-c2cccnc2)n1` [imatinib]?
Percentage of TMRE positive cells, dose-response curve versus control (GIST-T1/670 cell line [1]): produced an unaltered curve; Δ% priming (GIST-T1 cell line [2]; microscopy RTA with combination A): a clear increase in apoptotic priming; also recorded: increase of apoptotic priming; Percentage of TMRE positive cells, dose-response curve versus control (GIST-T1 cell line [2]): caused a shift of the curve identifying an increase in apoptotic priming; also recorded: induction of apoptotic priming

Which results are given for `COc1cc2ncnc(Nc3ccc(F)c(Cl)c3)c2cc1OCCCN1CCOCC1` [gefitinib]?
Percentage of cytochrome c retained, dose-response curve versus control (GIST-T1 cell line [3]): showed a similar profile as the control; Percentage of cytochrome c retained, dose-response curve versus control (GIST-T1/670 cell line [4]): produced the same curve as the control conditions; Percentage of cytochrome c retained, dose-response curve versus control (GIST-T1/670 cell line [5]): the same dose-response curve; Percentage of TMRE positive cells, dose-response curve versus control (GIST-T1 cells): the same response; Percentage of cytochrome c retained, dose-response curve versus control (GIST-T1 cell line [6]): produced the same curve as the control conditions; Percentage of TMRE positive cells, dose-response curve versus control (GIST-T1/670 cell line [1]): produced an unaltered curve; Percentage of TMRE positive cells, dose-response curve versus control (GIST-T1 cell line [2]): this was not observed
